Measured values from patent US11390616B2 (BRISTOL-MYERS SQUIBB COMPANY, priority 2015, dated 2022).

These molecules were tested against T1, human APJ receptor (Homo sapiens, UniProt P35414) (assay: Intracellular cAMP accumulation assay (APJ hcAMP, HTRF)). Details: HEK293 cells stably expressing human APJ receptor; inhibition of forskolin-mediated cAMP production; read-out: APJ cAMP Potency range.
T1 construct: expressed in transfected cells; host or cells: HEK293
T1 sequence (P35414 1-380): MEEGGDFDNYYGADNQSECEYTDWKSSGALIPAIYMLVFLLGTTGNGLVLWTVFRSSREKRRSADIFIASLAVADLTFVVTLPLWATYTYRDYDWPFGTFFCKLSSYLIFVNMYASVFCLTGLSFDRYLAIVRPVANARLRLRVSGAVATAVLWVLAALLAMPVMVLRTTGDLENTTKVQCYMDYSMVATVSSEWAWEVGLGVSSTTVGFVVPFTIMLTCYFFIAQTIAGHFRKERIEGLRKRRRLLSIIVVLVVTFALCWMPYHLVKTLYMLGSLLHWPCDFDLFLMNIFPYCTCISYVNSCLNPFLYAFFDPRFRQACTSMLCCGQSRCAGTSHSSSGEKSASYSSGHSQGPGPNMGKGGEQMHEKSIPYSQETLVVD
Format: cell-based
How it was run: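 Inhibition of forskolin (2 μM)-driven cAMP, with […], measured by HTRF after 30 min room-temperature compound exposure of stably transfected HEK293 cells. cAMP read from a standard curve; variable-slope fit gives EC50, and maximal inhibition is normalised to (Pyr1)apelin-13 as 100%.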

Row | Compound | EC50
1 | CCCCc1nc(=O)c(Cc2ccc(C3CC3)cc2)c(O)n1[C@@H](CC)c1cccc(C#N)c1 [Example 101, 3-[(1S)-1-{2-butyl-5-[(4-cyclopropylphenyl)methyl]-6-hydroxy-4-oxo-1,4-dihydropyrimidin-1-yl}propyl]benzonitrile] | 0.01 to 10 nM
2 | CCCCc1nc(=O)c(Cc2ccc(C3CC3)cc2)c(O)n1[C@@H](CC)c1cccc(C#N)c1 [Example 102, 3-[(1S)-1-{2-butyl-5-[(4-cyclopropylphenyl)methyl]-6-hydroxy-4-oxo-1,4-dihydropyrimidin-1-yl}propyl]benzonitrile] | 10 to 100 nM
3 | CCCCc1nc(=O)c(Cc2ccc(-c3ccnc(F)c3C)cc2)c(O)n1[C@@H](CC)c1cccc(F)c1 [Example 103, 2-butyl-5-{[4-(2-fluoro-3-methylpyridin-4-yl)phenyl]methyl}-1-[(1S)-1-(3-fluorophenyl)propyl]-6-hydroxy-1,4-dihydropyrimidin-4-one] | 0.01 to 10 nM
4 | CCCCc1nc(=O)c(Cc2ccc(-c3ccc(F)nc3C)cc2)c(O)n1[C@@H](CC)c1cccc(F)c1 [Example 104, 2-butyl-5-{[4-(6-fluoro-2-methylpyridin-3-yl)phenyl]methyl}-1-[(1S)-1-(3-fluorophenyl)propyl]-6-hydroxy-1,4-dihydropyrimidin-4-one] | 0.01 to 10 nM
5 | CCCCc1nc(=O)c(Cc2ccc(-c3cccnc3C)cc2)c(O)n1[C@@H](CC)c1cccc(F)c1 [Example 105, 2-butyl-1-[(1S)-1-(3-fluorophenyl)propyl]-6-hydroxy-5-{[4-(2-methylpyridin-3-yl)phenyl]methyl}-1,4-dihydropyrimidin-4-one] | 0.01 to 10 nM
6 | CCCCc1nc(=O)c(Cc2ccc(-c3ccncc3C)cc2)c(O)n1[C@@H](CC)c1cccc(F)c1 [Example 106, 2-butyl-1-[(1S)-1-(3-fluorophenyl)propyl]-6-hydroxy-5-{[4-(3-methylpyridin-4-yl)phenyl]methyl}-1,4-dihydropyrimidin-4-one] | 0.01 to 10 nM
7 | CC[C@@H](c1cc(F)cc(F)c1)n1c(CCC2CC2)nc(=O)c(Cc2ccc(-c3ccc(F)nc3C)cc2)c1O [Example 107, 2-(2-cyclopropylethyl)-1-[(1S)-1-(3,5-difluorophenyl)propyl]-5-{[4-(6-fluoro-2-methylpyridin-3-yl)phenyl]methyl}-6-hydroxy-1,4-dihydropyrimidin-4-one] | 0.01 to 10 nM
8 | CC[C@@H](c1cc(F)cc(F)c1)n1c(COC(C)C)nc(=O)c(Cc2ccc(-c3ccnc(F)c3C)cc2)c1O [Example 108, 1-[(1S)-1-(3,5-difluorophenyl)propyl]-5-{[4-(2-fluoro-3-methylpyridin-4-yl)phenyl]methyl}-6-hydroxy-2-[(propan-2-yloxy)methyl]-1,4-dihydropyrimidin-4-one] | 0.01 to 10 nM
9 | CC[C@@H](c1cc(F)cc(F)c1)n1c(CCC2CC2)nc(=O)c(Cc2ccc(-c3cccnc3C)cc2)c1O [Example 109, 2-(2-cyclopropylethyl)-1-[(1S)-1-(3,5-difluorophenyl)propyl]-6-hydroxy-5-{[4-(2-methylpyridin-3-yl)phenyl]methyl}-1,4-dihydropyrimidin-4-one] | 0.01 to 10 nM
10 | CC[C@@H](c1cc(F)cc(F)c1)n1c(CCC2CC2)nc(=O)c(Cc2ccc(-c3ccncc3C)cc2)c1O [Example 110, 2-(2-cyclopropylethyl)-1-[(1S)-1-(3,5-difluorophenyl)propyl]-6-hydroxy-5-{[4-(3-methylpyridin-4-yl)phenyl]methyl}-1,4-dihydropyrimidin-4-one] | 0.01 to 10 nM
11 | CC[C@@H](c1cc(F)cc(F)c1)n1c(COC(C)C)nc(=O)c(Cc2ccc(-c3cccnc3C)cc2)c1O [Example 111, 1-[(1S)-1-(3,5-difluorophenyl)propyl]-6-hydroxy-5-{[4-(2-methylpyridin-3-yl)phenyl]methyl}-2-[(propan-2-yloxy)methyl]-1,4-dihydropyrimidin-4-one] | 0.01 to 10 nM
12 | CC[C@@H](c1cc(F)cc(F)c1)n1c(COC(C)C)nc(=O)c(Cc2ccc(-c3ccc(F)nc3C)cc2)c1O [Example 112, 1-[(1S)-1-(3,5-difluorophenyl)propyl]-5-{[4-(6-fluoro-2-methylpyridin-3-yl)phenyl]methyl}-6-hydroxy-2-[(propan-2-yloxy)methyl]-1,4-dihydropyrimidin-4-one] | 0.01 to 10 nM
13 | CC[C@@H](c1cc(F)cc(F)c1)n1c(CCC2CC2)nc(=O)c(Cc2ccc(-c3ccnc(F)c3C)cc2)c1O [Example 113, 2-(2-cyclopropylethyl)-1-[(1S)-1-(3,5-difluorophenyl)propyl]-5-{[4-(2-fluoro-3-methylpyridin-4-yl)phenyl]methyl}-6-hydroxy-1,4-dihydropyrimidin-4-one] | 0.01 to 10 nM

Second part, the molecule after the results:

Row | EC50 | Compound
14 | 0.01 to 10 nM | CC[C@@H](c1cc(F)cc(F)c1)n1c(COC(C)C)nc(=O)c(Cc2ccc(-c3ccncc3C)cc2)c1O [Example 114, 1-[(1S)-1-(3,5-difluorophenyl)propyl]-6-hydroxy-5-{[4-(3-methylpyridin-4-yl)phenyl]methyl}-2-[(propan-2-yloxy)methyl]-1,4-dihydropyrimidin-4-one]
15 | 0.01 to 10 nM | Cc1ncccc1-c1ccc(Cc2c(O)n([C@H](c3cc(F)cc(F)c3)C(C)C)c(COC(C)C)nc2=O)cc1 [Example 115, 1-[(1S)-1-(3,5-difluorophenyl)-2-methylpropyl]-6-hydroxy-5-{[4-(2-methylpyridin-3-yl)phenyl]methyl}-2-[(propan-2-yloxy)methyl]-1,4-dihydropyrimidin-4-one]
16 | 0.01 to 10 nM | CC(C)OCc1nc(=O)c(Cc2ccc(-c3ccc(F)cc3C(N)=O)cc2)c(O)n1[C@H](c1cc(F)cc(F)c1)C(C)C [Example 116, 4′-({1-[(1S)-1-(3,5-difluorophenyl)-2-methylpropyl]-6-hydroxy-4-oxo-2-[(propan-2-yloxy)methyl]-1,4-dihydropyrimidin-5-yl}methyl)-4-fluoro-[1,1′-biphenyl]-2-carboxamide]
17 | 0.01 to 10 nM | CC(C)[C@@H](c1cc(F)cc(F)c1)n1c(CCC2CC2)nc(=O)c(Cc2ccc(-c3ccc(F)cc3C(N)=O)cc2)c1O [Example 117, 4′-{[2-(2-cyclopropylethyl)-1-[(1S)-1-(3,5-difluorophenyl)-2-methylpropyl]-6-hydroxy-4-oxo-1,4-dihydropyrimidin-5-yl]methyl}-4-fluoro-[1,1′-biphenyl]-2-carboxamide]
18 | 0.01 to 10 nM | CC[C@@H](c1ccccc1)n1c(-c2nc(C)cs2)nc(=O)c(Cc2ccc(-c3ccnc(F)c3C)c(F)c2)c1O [Example 118, 5-{[3-fluoro-4-(2-fluoro-3-methylpyridin-4-yl)phenyl]methyl}-6-hydroxy-2-(4-methyl-1,3-thiazol-2-yl)-1-[(1S)-1-phenylpropyl]-1,4-dihydropyrimidin-4-one]
19 | 0.01 to 10 nM | CC[C@@H](c1ccccc1)n1c(-c2nc(C)cs2)nc(=O)c(Cc2ccc(-c3cccn(C)c3=O)c(F)c2)c1O [Example 119, 5-{[3-fluoro-4-(1-methyl-2-oxo-1,2-dihydropyridin-3-yl)phenyl]methyl}-6-hydroxy-2-(4-methyl-1,3-thiazol-2-yl)-1-[(1S)-1-phenylpropyl]-1,4-dihydropyrimidin-4-one]
20 | 0.01 to 10 nM | CC[C@@H](c1ccccc1)n1c(-c2nc(C)cs2)nc(=O)c(Cc2ccc(-c3ccc(F)cc3C(N)=O)c(F)c2)c1O [Example 120, 2′,4-difluoro-4′-{[6-hydroxy-2-(4-methyl-1,3-thiazol-2-yl)-4-oxo-1-[(1S)-1-phenylpropyl]-1,4-dihydropyrimidin-5-yl]methyl}-[1,1′-biphenyl]-2-carboxamide]
